# Test results from patent US10208021B2, “Substituted tetrahydroisoquinoline compounds as factor XIa inhibitors” (BRISTOL-MYERS SQUIBB COMPANY, priority 2011, dated 2019).
# Structures can show the parent of a compound that is named as a salt.
# Target: purified human Factor XIa (Homo sapiens (Human), UniProt P03951)
# Assay: Factor XIa chromogenic substrate (S-2366) inhibition assay
# Assay type: biochemical
# Conditions: substrate S-2366, Table 1
# Description: The effectiveness of compounds of the present invention as inhibitors of the coagulation factors XIa, VIIa, IXa, Xa, XIIa, plasma kallikrein or thrombin, can be determined using a relevant purified serine protease, respectively, and an appropriate synthetic substrate. The rate of hydrolysis of the chromogenic or fluorogenic substrate by the relevant serine protease was measured both in the absence and presence of compounds of the present invention. […] A decrease in the rate of absorbance or fluorescence change in the presence of inhibitor is indicative of enzyme inhibition. Such methods are known to one skilled in the art. The results of this assay are expressed as the inhibitory constant, Ki. […] JT Baker or Fisher Scientific). […] Values of Ki were determined by allowing the protease to react with the substrate in the presence of the inhibitor. Reactions were allowed to go for periods of 20-180 minutes (depending on the protease) and the velocities (rate of absorbance or fluorescence change versus time) were measured.
# Sequence of purified human Factor XIa (P03951 388-625): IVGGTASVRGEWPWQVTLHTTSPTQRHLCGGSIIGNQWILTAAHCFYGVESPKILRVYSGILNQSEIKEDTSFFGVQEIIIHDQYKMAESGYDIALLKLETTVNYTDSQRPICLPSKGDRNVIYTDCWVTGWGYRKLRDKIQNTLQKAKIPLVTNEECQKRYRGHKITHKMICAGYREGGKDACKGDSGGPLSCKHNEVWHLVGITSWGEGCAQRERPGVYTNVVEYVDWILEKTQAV
# Sequence of purified human Factor XIa (P03951 19-387 partner): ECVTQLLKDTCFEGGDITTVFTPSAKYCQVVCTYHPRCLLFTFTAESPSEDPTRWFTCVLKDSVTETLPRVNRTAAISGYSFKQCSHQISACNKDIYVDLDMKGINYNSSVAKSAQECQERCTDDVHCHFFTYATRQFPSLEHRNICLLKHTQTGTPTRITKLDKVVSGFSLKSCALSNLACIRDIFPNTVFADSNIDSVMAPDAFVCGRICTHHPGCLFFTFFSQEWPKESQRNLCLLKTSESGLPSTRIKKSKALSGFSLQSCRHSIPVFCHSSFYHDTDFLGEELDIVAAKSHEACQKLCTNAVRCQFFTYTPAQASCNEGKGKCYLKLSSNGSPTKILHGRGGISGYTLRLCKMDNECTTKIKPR
row,Ki [µM],Compound
1,0.844,CC1(C)Cc2c(cccc2N2CCCCC2)[C@H](C(=O)Nc2ccc(C(=O)O)cc2)N1C(=O)/C=C/c1c(-n2cnnn2)ccc(Cl)c1F [Example 196]
2,0.314,O=C(Nc1ccc(F)cc1)C1c2cccc(N3CCC(N4CCCC4)CC3)c2CCN1C(=O)C=Cc1c(-n2cnnn2)ccc(Cl)c1F (stereo not shown) [Example 90]
3,< 0.005,CC(=O)c1ccc(Cl)c(F)c1/C=C/C(=O)N1CCc2c(cccc2N2CCS(=O)(=O)CC2)C1C(=O)Nc1ccc(C(=O)O)cc1 (racemic) [Example 215]

# Same assay, conditions: substrate S-2366, activity ranges, Table A
row,Compound,Ki [µM]
1,CC(=O)c1ccc(Cl)c(F)c1/C=C/C(=O)N1CCc2c(cccc2N2CCCCC2=O)[C@H]1C(=O)Nc1ccc(C(=O)O)cc1 [compound 40],< 0.005
2,O=C(O)c1ccc(NC(=O)C2c3cccc(N4CCC(N5CCCC5)CC4)c3CCN2C(=O)/C=C/c2c(C(F)(F)F)ccc(Cl)c2F)cc1 (racemic) [Example 176],< 0.005
3,CCOC(=O)c1ccc(NC(=O)C2c3cccc(N4CCC(N5CCCC5)CC4)c3CCN2C(=O)C=Cc2c(C(F)(F)F)ccc(Cl)c2F)cc1 (stereo not shown) [Example 177],0.005 to 0.01
4,COc1ccc(Cl)c(F)c1/C=C/C(=O)N1CCc2c(cccc2N2CCC(N3CCCC3)CC2)C1C(=O)Nc1ccc(C(=O)O)cc1 (racemic) [Example 161],< 0.005
5,CN1CCN(c2cccc3c2CCN(C(=O)/C=C/c2c(-n4cnnn4)ccc(Cl)c2F)C3C(=O)Nc2ccc(C#N)cc2)CC1 (stereo not shown) [Example 20],0.005 to 0.01
6,NC(=O)CCNC(=O)c1ccc(NC(=O)C2c3cccc(N4CCNCC4)c3CCN2C(=O)/C=C/c2cc(Cl)c(F)cc2-n2cnnn2)cc1 (racemic) [Example 73],0.5 to 5
7,O=C(Nc1ccc(F)cc1)C1c2cccc(N3CCNCC3)c2CCN1C(=O)/C=C/c1c(-n2cnnn2)ccc(Cl)c1F (stereo not shown) [Example 5],0.005 to 0.01
8,CC(=O)c1ccc(Cl)c(F)c1/C=C/C(=O)N1CCc2c(cccc2N2CCC(N3CCCC3)CC2)C1C(=O)Nc1ccc(C(=O)OC(C)(C)C)cc1 (racemic) [Example 153],0.005 to 0.01
9,CN(C)C(=O)c1ccc(NC(=O)C2c3cccc(N4CCNCC4)c3CCN2C(=O)/C=C/c2cc(Cl)c(F)cc2-n2cnnn2)cc1 (racemic) [Example 76],0.5 to 5
10,COC(=O)N[C@H]1CC[C@H](NC(=O)C2c3cccc(N4CCC(N5CCCC5)CC4)c3CCN2C(=O)/C=C/c2c(-n3cnnn3)ccc(Cl)c2F)CC1 (mixture of isomers) [Example 238],0.005 to 0.01
11,"NCc1ccc(Cl)cc1/C=C/C(=O)N1CCc2c(cccc2N2CCNCC2)C1C(=O)Nc1ccc(C(=O)O)cc1 (stereo not shown) [Example 32, (E)-4-(2-(3-(2-(Aminomethyl)-5-chlorophenyl)acryloyl)-5-(piperazin-1-yl)-1,2,3,4-tetrahydroisoquinoline-1-carboxamido)benzoic acid, tri TFA Salt]",0.1 to 0.5
12,CCOC(=O)c1ccc(NC(=O)C2c3cccc(N4CCN(C(=O)OC(C)(C)C)CC4=O)c3CCN2C(=O)/C=C/c2c(-n3cnnn3)ccc(Cl)c2F)cc1 (racemic) [Example 56],0.005 to 0.01
13,CC(=O)NCCNC(=O)c1ccc(NC(=O)C2c3cccc(N4CCNCC4)c3CCN2C(=O)/C=C/c2cc(Cl)c(F)cc2-n2cnnn2)cc1 (racemic) [Example 72],0.5 to 5
14,CN1CCN(c2cccc3c2CCN(C(=O)/C=C/c2c(-n4cnnn4)ccc(Cl)c2F)C3C(=O)Nc2ccc(C(=O)O)cc2)CC1 (stereo not shown) [Example 18],< 0.005
15,CCOC(=O)CCNC(=O)N1CCN(c2cccc3c2CCN(C(=O)/C=C/c2cc(Cl)ccc2-n2cnnn2)C3C(=O)Nc2ccc(NC(=O)OC)cc2)CC1 (stereo not shown) [Example 23],0.005 to 0.01
16,CC(=O)c1ccc(Cl)c(F)c1C=CC(=O)N1CCc2c(cccc2N2CCC(N3CCCC3)CC2)C1C(=O)Nc1ccc(C(=O)OCC(=O)N(C)C)cc1 (stereo not shown) [Example 172],< 0.005
17,O=C(O)c1ccc(NC(=O)C2c3cccc(N4CCC(N5CCCC5)CC4)c3CCN2C(=O)C=Cc2c(C(F)(F)F)ccc(Cl)c2F)cc1 (stereo not shown) [Example 179],0.1 to 0.5

# The remaining lines, values ahead:
row,Ki [µM],Compound
1,0.1 to 0.5,CCCCOC(=O)c1ccc(NC(=O)C2c3cccc(N4CCC(N5CCCC5)CC4)c3CCN2C(=O)C=Cc2c(-n3cnnn3)ccc(Cl)c2F)cc1 (stereo not shown) [Example 113]
2,< 0.005,O=C(O)c1ccc(NC(=O)C2c3cccc(N4CCC5(CCNCC5)CC4)c3CCN2C(=O)/C=C/c2c(-n3cnnn3)ccc(Cl)c2F)cc1 (racemic) [Example 146]
3,0.005 to 0.01,"CN(C)[C@H]1CCN(c2cccc3c2CCN(C(=O)/C=C/c2c(-n4cnnn4)ccc(Cl)c2F)[C@@H]3C(=O)Nc2ccc(C(=O)OC(C)(C)C)cc2)C1 [Example 207, tert-butyl 4-((S)-2-((E)-3-(3-chloro-2-fluoro-6-(1H-tetrazol-1-yl)phenyl)acryloyl)-5-((S)-3-(dimethylamino)pyrrolidin-1-yl)-1,2,3,4-tetrahydroisoquinoline-1-carboxamido)benzoate, bis TFA salt]"
4,< 0.005,N#Cc1ccc(NC(=O)C2c3cccc(N4CCC(N5CCCC5)CC4)c3CCN2C(=O)/C=C/c2c(-n3cnnn3)ccc(Cl)c2F)cc1 (racemic) [Example 85]
5,< 0.005,O=C(O)c1ccc(NC(=O)C2c3cccc(N4CCC(F)CC4)c3CCN2C(=O)C=Cc2c(-n3cnnn3)ccc(Cl)c2F)cc1 (stereo not shown) [Example 270]
6,< 0.005,"CN(C)[C@@H]1CCN(c2cccc3c2CCN(C(=O)/C=C/c2c(-n4cnnn4)ccc(Cl)c2F)[C@@H]3C(=O)Nc2ccc(C(=O)O)cc2)C1 [Example 210, 4-((S)-2-((E)-3-(3-Chloro-2-fluoro-6-(1H-tetrazol-1-yl)phenyl)acryloyl)-5-((R)-3-(dimethylamino)pyrrolidin-1-yl)-1,2,3,4-tetrahydroisoquinoline-1-carboxamido)benzoic acid, bis-TFA salt]"
7,0.005 to 0.01,CCOC(=O)c1ccc(NC(=O)[C@@H]2c3cccc(N4CCOCC4)c3CC(C)(C)N2C(=O)/C=C/c2c(-n3cnnn3)ccc(Cl)c2F)cc1 [Example 197]
8,0.005 to 0.01,"CN1CCN(c2cccc3c2CCN(C(=O)/C=C/c2c(-n4cnnn4)ccc(Cl)c2F)C3C(=O)Nc2ccc(C(=O)OC(C)(C)C)cc2)C(=O)C1 (stereo not shown) [Example 57, (E)-tert-butyl 4-(2-(3-(3-chloro-2-fluoro-6-(1H-tetrazol-1-yl)phenyl)acryloyl)-5-(4-methyl-2-oxopiperazin-1-yl)-1,2,3,4-tetrahydroisoquinoline-1-carboxamido)benzoate]"
9,< 0.005,O=C(O)c1ccc(NC(=O)C2c3cccc(N4CCC(N5CCCC5=O)CC4)c3CCN2C(=O)/C=C/c2c(-n3cnnn3)ccc(Cl)c2F)cc1 (racemic) [Example 96]
10,< 0.005,CNC(=O)N1CCCN(c2cccc3c2CCN(C(=O)/C=C/c2c(-n4cnnn4)ccc(Cl)c2F)C3C(=O)Nc2ccc(C(=O)O)cc2)CC1 (racemic) [Example 259]
11,< 0.005,O=C(O)c1ccc(NC(=O)[C@@H]2c3cccc(N4CCC(C(=O)N5CCCC5)CC4)c3CCN2C(=O)/C=C/c2c(-n3cnnn3)ccc(Cl)c2F)cc1 [Example 133]
12,< 0.005,CC(=O)OC1CCN(c2cccc3c2CCN(C(=O)/C=C/c2c(-n4cnnn4)ccc(Cl)c2F)C3C(=O)Nc2ccc(C(=O)O)cc2)CC1 (racemic) [Example 137]
13,< 0.005,O=C(O)c1ccc(NC(=O)[C@@H]2c3cccc(N4CCC(N5CCOCC5)CC4)c3CCN2C(=O)/C=C/c2c(-n3cnnn3)ccc(Cl)c2F)cc1 [Example 139]
14,0.005 to 0.01,CCOC(=O)c1ccc(NC(=O)[C@@H]2c3cccc(N4CCNCC4=O)c3CCN2C(=O)/C=C/c2c(-n3cnnn3)ccc(Cl)c2F)cc1 [Example 190]
